Laboratory results from patent US20090191193A1, “Aryl Vinyl Sulfides, Sulfones, Sulfoxides and Sulfonamides, Derivatives Thereof and Therapeutic Uses Thereof” (TEMPLE UNIVERSITY-OF THE COMMONWEALTH SYSTEM OF HIGHER …, priority 2006, published 2009).

Assays:
DU145 (prostate cancer) = assay: Effect on tumor cell lines, viable cell count by trypan blue exclusion (Latham et al.): DU145; assay type: cell-based; conditions: Homo sapiens, DU-145, 96 h, DU145 prostate cancer cells, viable cell count 96 hours after treatment
[1] = tested on: K562 (chronic myelogenous leukaemia); assay: Effect on tumor cell lines, viable cell count by trypan blue exclusion (Latham et al.): K562; assay type: cell-based; conditions: Homo sapiens, K562, 96 h, K562 chronic myelogenous leukaemia cells, viable cell count 96 hours after treatment

| Structure (SMILES) | IC50 (DU145 (prostate cancer)) | IC50 [1] | melting point |
| --- | --- | --- | --- |
| N#C/C(=C\c1ccccc1OCc1ccccc1)S(=O)(=O)Nc1ccc(F)cc1 [Example 230] | 25 to 50 µM | 10 to 25 µM | 127 to 129 °C |
| N#C/C(=C\c1c[nH]c2ccccc12)S(=O)(=O)Nc1ccc(F)cc1 [Example 231] | 50 to 100 µM | 25 to 50 µM | 202 to 204 °C |
| COc1cc(OC)c(/C=C(\C#N)S(=O)(=O)Nc2ccc(F)cc2)c(OC)c1 [Example 232] | 50 to 100 µM | 25 to 50 µM | 169 to 171 °C |
| N#C/C(=C\c1c(F)c(F)c(F)c(F)c1F)S(=O)(=O)Nc1ccc(F)cc1 [Example 234] | 1 to 10 µM | < 1 µM | 150 to 152 °C |
| N#C/C(=C\c1ccccc1Cl)S(=O)(=O)Nc1ccc(F)cc1 [Example 235] | 25 to 50 µM | 10 to 25 µM | 182 to 184 °C |
| COc1cc(OC)c(OC)cc1/C=C(\C#N)S(=O)(=O)Nc1ccc(F)cc1 [Example 237] | > 100 µM | > 100 µM | 184 to 186 °C |
| Cc1ccc(C)c(/C=C(\C#N)S(=O)(=O)Nc2ccc(F)cc2)c1 [Example 238] | > 100 µM | 50 to 100 µM | 161 to 164 °C |
| N#C/C(=C\c1ccc(Br)cc1)S(=O)(=O)Nc1ccc(F)cc1 [Example 242] | 50 to 100 µM | 50 to 100 µM | 130 to 132 °C |
| N#C/C(=C\c1ccc(F)c(Cl)c1)S(=O)(=O)Nc1ccc(F)cc1 [Example 245] | 50 to 100 µM | 50 to 100 µM | 118 to 120 °C |

The remaining lines, values ahead:

| IC50 (DU145 (prostate cancer)) | IC50 [1] | melting point | Structure (SMILES) |
| --- | --- | --- | --- |
| 50 to 100 µM | 25 to 50 µM | 172 to 174 °C | Cc1ccc(C)c(/C=C(\C#N)S(=O)(=O)Nc2ccc(Br)cc2)c1 [Example 229] |
| > 100 µM | 50 to 100 µM | 179 to 180 °C | CN(C)c1ccc(/C=C(\C#N)S(=O)(=O)Nc2ccc(F)cc2)cc1 [Example 233] |
| > 100 µM | 50 to 100 µM | 179 to 181 °C | Cc1ccsc1/C=C(\C#N)S(=O)(=O)Nc1ccc(F)cc1 [Example 236] |
| 50 to 100 µM | 50 to 100 µM | 135 to 139 °C | N#C/C(=C\c1ccc(F)cc1F)S(=O)(=O)Nc1ccc(F)cc1 [Example 240] |
| > 100 µM | 50 to 100 µM | 142 to 144 °C | COc1ccc(/C=C(\C#N)S(=O)(=O)Nc2ccc(F)cc2)c(F)c1 [Example 241] |
| 10 to 25 µM | 10 to 25 µM | 184 to 186 °C | N#C/C(=C\c1cc(Cl)cc(Cl)c1Cl)S(=O)(=O)Nc1ccc(F)cc1 [Example 243] |
| > 100 µM | > 100 µM | 141 to 142 °C | Cc1ccc(/C=C(\C#N)S(=O)(=O)Nc2ccc(F)cc2)cc1C [Example 244] |
| > 100 µM | > 100 µM | 133 to 134 °C | Cc1ccc(/C=C(\C#N)S(=O)(=O)Nc2ccc(F)cc2)s1 [Example 246] |
| > 100 µM | > 100 µM | 152 to 154 °C | COc1ccccc1/C=C(\C#N)S(=O)(=O)Nc1ccc(F)cc1 [Example 247] |
| > 100 µM | 50 to 100 µM | 108 to 110 °C | N#C/C(=C\c1ccc(Cl)cc1)S(=O)(=O)Nc1ccc(F)cc1 [Example 248] |
| > 100 µM | > 100 µM | 179 to 182 °C | COc1cc(/C=C(\C#N)S(=O)(=O)Nc2ccc(F)cc2)cc(OC)c1OC [Example 249] |
| > 100 µM | 50 to 100 µM | 167 to 169 °C | N#C/C(=C\c1c[nH]c2ccc(Br)cc12)S(=O)(=O)Nc1ccc(F)cc1 [Example 250] |
| > 100 µM | > 100 µM | 150 to 152 °C | CCOc1ccc(/C=C(\C#N)S(=O)(=O)Nc2ccc(F)cc2)cc1OC [Example 251] |
| 25 to 50 µM | 10 to 25 µM | 177 to 179 °C | Cc1ccc(NS(=O)(=O)/C(C#N)=C/c2ccccc2OCc2ccccc2)c(C)c1 [Example 252] |
